Test results from patent US8771665B2 (Cocrystal Discovery, Inc., priority 2010, dated 2014).

What was measured:
HCV1b replicon = assay: HCV Replicon Assay and EC50 Determination (Huh-7 cells, luciferase reporter); format: cell-based; conditions: Hepatitis C virus; Huh-7 cell line with HCV1b replicon containing luciferase reporter, 72 hr, triplicate assays
Description: HCV Replicon Assay and EC50 Determination
The antiviral activity of compounds against hepatitis C virus was determined by a hepatitis C virus replicon reporter cell line developed by Bartenschlager (Lohmann et al., Science 1999, 285:110-113). This cell-based assay utilized a liver cell carcinoma (Huh-7) cell line stably transformed with an HCV1b replicon containing a luciferase reporter gene. Varied concentrations of compounds were added to the reporter cell line, and further incubated at 37° C. for 72 hr in DMEM supplemented with 10% FCS. The inhibitory effects of experimental compounds or the reference compound, interferon alpha (INFα), on HCV replication were measured by luciferase activity using the Britelite™ plus luminescence reporter gene kit (Perkin Elmer, Shelton, Conn.). The Britelite plus reagent was added to the 96-well plates containing the HCV reporter cells, and luminescence was measured within 15 min using a Wallac 1450 Microbeta® Trilux liquid scintillation counter. EC50 values were calculated using GraFit 6 and GraphPad Prism 5 from triplicate HCV replicon assays.

[1] = molecular target: T1, HCV1b NS5B polymerase delta 21 (Hepatitis C virus genotype 1b, UniProt P26663); assay: RNA-Dependent RNA HCV NS5B (Polymerase) Assay and IC50 Determination; format: biochemical
T1 construct: purified HCV1b NS5B polymerase delta 21
Method in brief: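 Purified NS5B Δ21 (0.6 μg) with polyA:U16 template, 10 μM UTP plus α-32P UTP in Tris-HCl pH 7.5, 5 mM MgCl2, 0.5% Triton X-100, 60 min at 23°C with varied compound concentrations. Radiolabelled RNA captured on filters, quantified by phosphorimaging; IC50 from triplicate assays.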

T1 sequence (P26663 2420-2989): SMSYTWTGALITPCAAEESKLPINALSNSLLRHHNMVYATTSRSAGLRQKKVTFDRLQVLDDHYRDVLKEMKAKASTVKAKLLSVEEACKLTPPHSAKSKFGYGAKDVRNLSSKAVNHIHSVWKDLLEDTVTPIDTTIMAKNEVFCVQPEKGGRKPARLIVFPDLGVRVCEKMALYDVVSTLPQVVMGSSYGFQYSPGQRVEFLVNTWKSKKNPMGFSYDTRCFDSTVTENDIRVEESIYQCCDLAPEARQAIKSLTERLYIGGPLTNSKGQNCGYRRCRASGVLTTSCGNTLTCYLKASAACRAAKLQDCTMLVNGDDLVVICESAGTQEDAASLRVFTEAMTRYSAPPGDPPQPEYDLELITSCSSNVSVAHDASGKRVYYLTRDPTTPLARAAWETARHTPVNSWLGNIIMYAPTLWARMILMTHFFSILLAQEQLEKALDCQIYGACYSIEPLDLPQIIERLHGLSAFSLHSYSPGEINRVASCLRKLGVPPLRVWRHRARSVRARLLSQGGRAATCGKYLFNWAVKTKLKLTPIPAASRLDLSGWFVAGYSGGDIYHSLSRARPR

SMILES | EC50 (HCV1b replicon) [µM] | IC50 [1] [µM]
CC1CCC(C2=C(c3cc(-c4ccccc4)sc3C(=O)O)CCN(C)C2)CC1 (stereo not shown) [Example 001, 3-[1-Methyl-5-(4-methyl-cyclohexyl)-1,2,3,6-tetrahydro-pyridin-4-yl]-5-phenyl-thiophene-2-carboxylic acid] | < 3 | < 3
CC1CCC(C2=C(c3cc(C#CC(C)(C)C)sc3C(=O)O)CCN(C)C2)CC1 (stereo not shown) [Example 003, 5-(3,3-Dimethyl-but-1-ynyl)-3-[1-methyl-5-(4-methyl-cyclohexyl)-1,2,3,6-tetrahydro-pyridin-4-yl]-thiophene-2-carboxylic acid] | < 3 | < 3
CC1CCC(C2=C(c3cc(-c4ccc(-c5cc6ncccn6n5)cc4)sc3C(=O)O)CCN(C)C2)CC1 (stereo not shown) [Example 005, 3-[1-Methyl-5-(4-methyl-cyclohexyl)-1,2,3,6-tetrahydro-pyridin-4-yl]-5-(4-pyrazolo[1,5-a]pyrimidin-2-yl-phenyl)-thiophene-2-carboxylic acid] | < 3 | < 3
CC1CCC(C2=C(c3cc(-c4ccc(NC(=O)c5cscn5)cc4)sc3C(=O)O)CCN(C)C2)CC1 (stereo not shown) [Example 013, 3-[1-Methyl-5-(4-methyl-cyclohexyl)-1,2,3,6-tetrahydro-pyridin-4-yl]-5-{4-[(thiazole-4-carbonyl)-amino]-phenyl}-thiophene-2-carboxylic acid] | < 3 | < 3
CC1CC=C(C2=C(c3cc(-c4ccccc4)sc3C(=O)O)CCN(C)C2)CC1 (stereo not shown) [Example 109, 3-[1-Methyl-5-(4-methyl-cyclohex-1-enyl)-1,2,3,6-tetrahydro-pyridin-4-yl]-5-phenyl-thiophene-2-carboxylic acid] | > 10 | < 3
Cc1cc(C)n2nc(CN3CCC(c4cc(-c5ccc(NC(=O)c6cscn6)cc5)sc4C(=O)O)=C(C4CCC(C)CC4)C3)nc2n1 (stereo not shown) [Example 130, 3-[1-(5,7-Dimethyl-[1,2,4]triazolo[1,5-a]pyrimidin-2-ylmethyl)-5-(4-methyl-cyclohexyl)-1,2,3,6-tetrahydro-pyridin-4-yl]-5-{4-[(thiazole-4-carbonyl)-amino]-phenyl}-thiophene-2-carboxylic acid] | < 3 | < 3
CCCC(C)C#Cc1cc(C2=C(C3CCC(C)CC3)CCN(C)C2)c(C(=O)O)s1 (stereo not shown) [Example 177, 5-(3-Methyl-hex-1-ynyl)-3-[1-methyl-4-(4-methyl-cyclohexyl)-1,2,5,6-tetrahydro-pyridin-3-yl]-thiophene-2-carboxylic acid] | – | 3 to 10
